Values after ≈ are worked out from the molar mass of the structure shown.
Key:
IDH2^R140Q = biological target: T1, IDH2^R140Q (Homo sapiens, UniProt P48735, R140Q); test: Enzyme activity inhibition assay (fluorescence-based), IDH2 R140Q; type: biochemical; conditions: numeric values
T1 sequence (P48735 40-452 R140Q): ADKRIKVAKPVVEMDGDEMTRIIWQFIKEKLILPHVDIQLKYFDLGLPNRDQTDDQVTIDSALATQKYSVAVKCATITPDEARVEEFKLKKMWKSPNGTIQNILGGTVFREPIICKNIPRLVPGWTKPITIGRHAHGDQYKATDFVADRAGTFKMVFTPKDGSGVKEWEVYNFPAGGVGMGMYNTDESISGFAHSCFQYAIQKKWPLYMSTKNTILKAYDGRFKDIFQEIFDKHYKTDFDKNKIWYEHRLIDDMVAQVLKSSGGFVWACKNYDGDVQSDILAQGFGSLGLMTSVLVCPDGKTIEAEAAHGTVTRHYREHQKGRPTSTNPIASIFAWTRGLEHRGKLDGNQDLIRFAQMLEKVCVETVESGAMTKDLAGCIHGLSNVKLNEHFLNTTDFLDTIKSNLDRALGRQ
Protocol: The inhibitory ability of the compounds on the enzyme activities of IDH1^R132H and IDH2^R140Qwas detected and expressed as the half inhibitory concentration (IC50) value. AG-881 was used as a positive control compound. In this experiment, compounds were screened on enzymes IDH1^R132H and IDH2^R140Q using a fluorescence-based method (initial concentration: 10000 nM, 3-fold dilution, 10 concentrations, and single-well detection). • (1) Preparation of 1×assay buffer. • (2) Preparation of compound concentration gradient: the compounds to be tested were assayed at an initial concentration of 10000 nM, with 3-fold dilution and 10 concentrations, and diluted into 200-fold the final concentration in 100% DMSO solution in a 384-well plate. • (3) 250 nL of DMSO and 250 nL of diluted compounds were transferred to a reaction plate with Echo 550. • (4) IDH2^R140Q enzyme detection: 25 μL of an IDH2^R140Q enzyme solution was added, and the mixture was incubated for 60 minutes; then 25 μL of a substrate solution was added, and the mixture was incubated for 150 minutes; then 25 μL of a detection buffer was added, and the mixture was shaken for 1 minute and incubated for 60 minutes; and finally, Synergy 2, Ex544/Em590 cutoff 590 was used for reading. • (5) IDH1^R132H enzyme detection: 40 μL of a mixture solution of an IDH1^R132H enzyme at the 1.25-fold final concentration and NADPH was added, and the mixture was incubated for 60 minutes; then 10 μL of a substrate solution at the 5-fold final concentration was added, and the mixture was incubated for 90 minutes; then 25 μL of a detection buffer at the 3-fold final concentration was added, and the mixture was shaken for 1 minute. and finally, Synergy 2, Ex544/Em590 cutoff 590 was used for reading. • (8) Inhibition rate calculation, formula: % Inhibition=(RFU_sample−RFU_min)/(RFU_max−RFU_min)*100%, wherein RFU-sample represents the fluorescence intensity of a sample; RFU-min represents the average value of negative control wells and represents the fluorescence intensity with an enzyme; and RFU-max represents the average value of positive control wells and represents the fluorescence intensity without an enzyme. The curve fitting was performed using Graphpad Prism software to obtain IC50 values, and the test results were as shown in table 2.

[1] = Kinetic solubility experiment; type: physicochemical; conditions: buffer, kinetic from dmso stock
Protocol: 1. Preparation of Solutions/Buffers at Different pH Values
• Solution A: 17.42 g of K2HPO4 was weighed and dissolved in 1 L of ultrapure water. • Solution B: 13.65 g of KH2PO4 was weighed and dissolved in 1 L of ultrapure water.
A certain mass of substance to be tested was accurately weighed and dissolved in a certain volume of DMSO to obtain a 20 mM or 10 mM stock solution.
An acetonitrile stopping solution containing 1 ng/mL of labetalol and glibenclamide was prepared.
3. Incubation System (n=3)
The above-mentioned solutions were placed in a 96-well plate, respectively and shaken in a thermostatic oscillator for 2 hours (37° C., 150 rpm).
4. Control solution: 200 μM control solution of the substance to be tested was prepared in methanol. 5. Sample treatment
At a predetermined time, the 96-well plate was placed in a centrifuge and centrifuged at 4100 rpm for 15 minutes. A certain volume of the supernatant and a certain volume of control solution were respectively taken into 19 times volume of water containing 70% acetonitrile that has been previously added. The mixture was uniformly mixed, diluted 20 times with an internal standard stop solution and shaken in a thermostatic oscillator at 700 rpm at room temperature for 5 min. Further dilution may be necessary depending on the sensitivity of the compound, and sample analysis was performed by LC-MS/MS.
The ratio of compound peak area to internal standard peak area was used for calculation. According to the concentration relationship between the compound in the buffer and the control solution, the calculated concentration was the kinetic solubility, and the calculation formula was as follows:
Solubility(μg/mL)=mass spectral peak area of the compound to be tested in buffers at different pHs×200μM×molecular weight of the compound to be tested(MW)/mass spectral peak area of the compound to be tested in methanol/1000;

`C[C@@H](Nc1nc(N[C@H](C)C(F)(F)F)nc(-c2cc(F)c(N)c(Cl)n2)n1)C(F)(F)F` [Example 5, 6-(5-amino-6-chloro-4-fluoropyridin-2-yl)-N^2,N^4-bis((R)-1,1,1-trifluoropropyl-2-yl)-1,3,5-triazine-2,4-diamine] gave an IC50 (IDH2^R140Q) of 190 nM, a solubility at 2 h ([1]; aqueous buffer, pH = 3.0, 37° C.) of 53.3 µg/mL (≈ 119 µM) and a solubility at 2 h ([1]; aqueous buffer, pH = 5.0, 37° C.) of 59.5 µg/mL (≈ 133 µM). It also gave a solubility at 2 h ([1]; aqueous buffer, pH = 7.4, 37° C.) of 48.1 µg/mL (≈ 107 µM) and a solubility at 2 h ([1]; simulated gastric fluid, pH = 1.0, 37° C.) of 86.6 µg/mL (≈ 193 µM).

— US20250051301A1, “MUTANT IDH1 AND IDH2 INHIBITOR AND APPLICATION THEREOF” (Betta Pharmaceuticals Co., Ltd, priority 2022, published 2025)
